# Laboratory results: the supplement of paper PMC11061612
# Assays:
# SK-MEL-1 (Melanoma) = experiment: combination Emax (second highest fraction inhibited in the dose matrix, 72 h); higher = more inhibition; extreme values may be limits of the assay
# Summary of the method: (§1)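 Cell lines grown in DMEM/F12 or RPMI with 10% FBS were plated in 1536-well plates and held 24 hours at 37°C, 5% CO2 before 72 hours of exposure to two-drug dose matrices, with DMSO typically at 0.2%. CellTiter-Glo 2.0 luminescence gave viability, which was converted to inhibition. Vehicle wells were set to 0 and blank wells to 1. Combination Emax is the second-highest inhibition in the matrix, and Bliss excess is the observed combination effect minus the expected EA + EB − EA·EB, where EA and EB are the single-agent effects.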
# [1] = test system: EKVX (Non-Small Cell Lung Carcinoma); experiment: as above
# Summary of the method: as §1
# [2] = test system: BICR78 (Oral Cavity Carcinoma); experiment: as above
# Summary of the method: as §1
# A172 (Glioblastoma) = experiment: as above
# Summary of the method: as §1
# [3] = test system: HCC-827 (Lung Adenocarcinoma); experiment: as above
# Summary of the method: as §1
# HuO9 (Osteosarcoma) = experiment: as above
# Summary of the method: as §1
# CS1 (Chondrosarcoma) = experiment: as above
# Summary of the method: as §1
# [4] = test system: WSU-DLCL2 (B-Cell Non-Hodgkin's Lymphoma); experiment: as above
# Summary of the method: as §1
# MSTO-211H (Mesothelioma) = experiment: as above
# Summary of the method: as §1
# [5] = test system: EFM-192A (Breast Carcinoma); experiment: as above
# Summary of the method: as §1
# HCC38 (Breast Carcinoma) = experiment: as above
# Summary of the method: as §1
# EW-22 (Ewing's Sarcoma) = experiment: as above
# Summary of the method: as §1
# [6] = test system: P31-FUJ (Acute Myeloid Leukemia); experiment: as above
# Summary of the method: as §1
# [7] = test system: SW48 (Colorectal Carcinoma); experiment: as above
# Summary of the method: as §1
# [8] = test system: NCI-H1688 (Small Cell Lung Carcinoma); experiment: Bliss excess, mean over the matrix (fraction); higher = more synergy
# Summary of the method: as §1
# [9] = test system: SNU-61 (Colorectal Carcinoma); experiment: as above
# Summary of the method: as §1
# [10] = test system: KG-1 (Acute Myeloid Leukemia); experiment: as above
# Summary of the method: as §1
# [11] = test system: NOMO-1 (Acute Myeloid Leukemia); experiment: as above
# Summary of the method: as §1
# [12] = test system: 647-V (Bladder Carcinoma); experiment: as above
# Summary of the method: as §1
# [13] = test system: RCC10RGB (Kidney Carcinoma); experiment: as above
# Summary of the method: as §1
# 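Wherever Bliss excess, mean over the matrix is given: after 72 h of two-drug dosing.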
Structure (SMILES),combination Emax (SK-MEL-1 (Melanoma)),combination Emax [1],combination Emax [2],combination Emax (A172 (Glioblastoma)),combination Emax [3],combination Emax (HuO9 (Osteosarcoma)),combination Emax (CS1 (Chondrosarcoma)),combination Emax [4],combination Emax (MSTO-211H (Mesothelioma)),combination Emax [5],combination Emax (HCC38 (Breast Carcinoma)),combination Emax (EW-22 (Ewing's Sarcoma)),combination Emax [6],combination Emax [7],Bliss excess [8],Bliss excess [9],Bliss excess [10],Bliss excess [11],Bliss excess [12],Bliss excess [13]
"CN(C)CCCOc1ccc(-c2ccc3ncc4c(c3c2)n(C2CCOCC2)c(=O)n4C)cn1 [AZD0156] + C=CCn1c(=O)c2cnc(Nc3ccc(N4CCN(C)CC4)cc3)nc2n1-c1cccc(C(C)(C)O)n1 [AZD1775] (first compound max 1 µM, partner max 1 µM)",0.442,0.179,0.311,0.53,0.456,0.709,0.509,0.944,0.667,0.353,0.505,0.616,0.912,0.372,-0.0033,-0.0277,-0.0194,0.004,0.0001,-0.0775
"CN(C)CCCOc1ccc(-c2ccc3ncc4c(c3c2)n(C2CCOCC2)c(=O)n4C)cn1 [AZD0156] + CCN(CCO)CCCOc1ccc2c(Nc3cc(CC(=O)Nc4cccc(F)c4)[nH]n3)ncnc2c1 [AZD2811] (first compound max 1 µM, 7x7, partner max 1 µM)",0.275,0.0666,0.182,0.499,0.143,0.224,0.301,0.359,0.27,0.269,0.181,0.694,0.882,0.957,0.0018,-0.0339,-0.0001,0.0759,0.0365,-0.039
"CN(C)CCCOc1ccc(-c2ccc3ncc4c(c3c2)n(C2CCOCC2)c(=O)n4C)cn1 [AZD0156] + C[C@@H]1COCCN1C2=NC(=NC(=C2)C3(CC3)[S@](=N)(=O)C)C4=C5C=CNC5=NC=C4 [AZD6738] (first compound max 1 µM, 7x7, partner max 10 µM)",0.442,0.234,0.696,0.717,0.495,0.838,0.674,0.977,0.856,0.245,0.558,0.905,0.912,0.779,-0.0004,-0.0047,0.128,0.0095,0.0039,-0.0129
"C=CCn1c(=O)c2cnc(Nc3ccc(N4CCN(C)CC4)cc3)nc2n1-c1cccc(C(C)(C)O)n1 [AZD1775] + C[C@@H]1COCCN1C2=NC(=NC(=C2)C3(CC3)[S@](=N)(=O)C)C4=C5C=CNC5=NC=C4 [AZD6738] (first compound max 1 µM, partner max 10 µM)",0.55,0.327,0.667,0.81,0.609,0.94,0.766,1,0.85,0.39,0.712,0.902,0.952,0.886,0.0326,-0.051,-0.0218,0.0261,0.0662,-0.137
"C=CCn1c(=O)c2cnc(Nc3ccc(N4CCN(C)CC4)cc3)nc2n1-c1cccc(C(C)(C)O)n1 [AZD1775] + O=C(c1cc(Cc2n[nH]c(=O)c3ccccc23)ccc1F)N1CCN(C(=O)C2CC2)CC1 [Olaparib] (first compound max 1 µM, partner max 10 µM)",0.42,0.256,0.362,0.434,0.368,0.792,0.564,0.992,0.696,0.293,0.579,0.894,0.868,0.409,-0.0142,-0.0289,-0.0195,-0.027,0.0046,-0.0166
"CCN(CCO)CCCOc1ccc2c(Nc3cc(CC(=O)Nc4cccc(F)c4)[nH]n3)ncnc2c1 [AZD2811] + C=CCn1c(=O)c2cnc(Nc3ccc(N4CCN(C)CC4)cc3)nc2n1-c1cccc(C(C)(C)O)n1 [AZD1775] (first compound max 1 µM, partner max 1 µM)",0.353,0.17,0.264,0.603,0.392,0.686,0.45,0.937,0.618,0.239,0.489,0.678,0.917,0.964,-0.006,0.0108,0.0591,0.0412,0.0491,-0.0716
"CCN(CCO)CCCOc1ccc2c(Nc3cc(CC(=O)Nc4cccc(F)c4)[nH]n3)ncnc2c1 [AZD2811] + C[C@@H]1COCCN1C2=NC(=NC(=C2)C3(CC3)[S@](=N)(=O)C)C4=C5C=CNC5=NC=C4 [AZD6738] (first compound max 1 µM, 7x7, partner max 10 µM)",0.331,0.261,0.637,0.655,0.493,0.815,0.632,0.822,0.727,0.233,0.568,0.894,0.942,0.975,-0.0054,-0.0434,-0.0332,-0.0118,0.0177,-0.0472
"CCN(CCO)CCCOc1ccc2c(Nc3cc(CC(=O)Nc4cccc(F)c4)[nH]n3)ncnc2c1 [AZD2811] + O=C(c1cc(Cc2n[nH]c(=O)c3ccccc23)ccc1F)N1CCN(C(=O)C2CC2)CC1 [Olaparib] (first compound max 1 µM, 7x7, partner max 10 µM)",0.289,0.159,0.285,0.534,0.236,0.293,0.386,0.273,0.35,0.212,0.287,0.949,0.83,0.961,-0.0131,-0.0184,0.0382,0.0454,0.0433,-0.0004
"CN(CCO)CC[C@H](CSc1ccccc1)Nc1ccc(S(=O)(=O)NC(=O)c2ccc(N3CCC([C@@H](O)c4ccccc4-c4ccc(Cl)cc4)CC3)cc2)cc1S(=O)(=O)C(F)(F)F [AZD4320] + C1CN(CCC1(C(=O)N[C@@H](CCO)C2=CC=C(C=C2)Cl)N)C3=NC=NC4=C3C=CN4 [Capivasertib] (first compound max 1 µM, 7x7, partner max 3 µM)",0.419,0.269,0.244,0.158,0.201,0.873,0.491,1,0.48,0.418,0.848,0.851,0.869,0.732,-0.0173,-0.038,0.0226,-0.0012,0.0056,-0.0576
"CN(CCO)CC[C@H](CSc1ccccc1)Nc1ccc(S(=O)(=O)NC(=O)c2ccc(N3CCC([C@@H](O)c4ccccc4-c4ccc(Cl)cc4)CC3)cc2)cc1S(=O)(=O)C(F)(F)F [AZD4320] + C=CCn1c(=O)c2cnc(Nc3ccc(N4CCN(C)CC4)cc3)nc2n1-c1cccc(C(C)(C)O)n1 [AZD1775] (first compound max 1 µM, partner max 1 µM)",0.584,0.244,0.304,0.491,0.301,0.949,0.647,1,0.933,0.302,0.903,0.988,0.983,0.825,0.0959,-0.0175,0.108,0.0233,0.0479,-0.0183
"CN(CCO)CC[C@H](CSc1ccccc1)Nc1ccc(S(=O)(=O)NC(=O)c2ccc(N3CCC([C@@H](O)c4ccccc4-c4ccc(Cl)cc4)CC3)cc2)cc1S(=O)(=O)C(F)(F)F [AZD4320] + CCN(CCO)CCCOc1ccc2c(Nc3cc(CC(=O)Nc4cccc(F)c4)[nH]n3)ncnc2c1 [AZD2811] (first compound max 1 µM, 7x7, partner max 1 µM)",0.453,0.155,0.313,0.457,0.176,0.728,0.683,0.907,0.837,0.172,0.802,1,0.954,1,0.0729,-0.0262,0.0803,0.208,0.114,-0.0539
"CN(CCO)CC[C@H](CSc1ccccc1)Nc1ccc(S(=O)(=O)NC(=O)c2ccc(N3CCC([C@@H](O)c4ccccc4-c4ccc(Cl)cc4)CC3)cc2)cc1S(=O)(=O)C(F)(F)F [AZD4320] + CN(C)CCCOc1ccc(-c2ccc3ncc4c(c3c2)n(C2CCOCC2)c(=O)n4C)cn1 [AZD0156] (first compound max 1 µM, 7x7, partner max 1 µM)",0.498,0.155,0.134,0.176,0.22,0.79,0.427,0.581,0.435,0.234,0.812,0.897,0.814,0.517,0.0127,-0.0248,0.0215,0.0017,0.0212,-0.09
"CCc1c2c(nc3ccc(O)cc13)-c1cc3c(c(=O)n1C2)COC(=O)[C@]3(O)CC [SN-38] + O=C(c1cc(Cc2n[nH]c(=O)c3ccccc23)ccc1F)N1CCN(C(=O)C2CC2)CC1 [Olaparib] (first compound max 0.3 µM, 7x7, partner max 10 µM)",0.516,0.3,0.786,0.842,0.497,0.996,0.846,1,0.677,,0.682,0.947,0.987,0.799,0.0337,,,0.0544,,
